Test results: patent US4563476A, “Substituted 5-hydroxy-2,3-dihydrobenzofurans and analogs thereof useful as anti-inflammatory agents” (Merck & Co., Inc., priority 1983, dated 1986)

Assays:
[1] = system: inflammatory responses elicited by topically applied phorbol myristate acetate (PMA) or topically applied arachidonic acid (AA); assay: Topical mouse ear assay (TME), edema by wet weight; assay type: in vivo, mice; settings: PMA or AA not specified
Protocol: The topical mouse ear assay (TME) is the method by which the novel compounds of the present invention are evaluated for its effect on inflammatory responses elicited by topically applied phorbol myristate acetate (PMA) or topically applied arachidonic acid (AA). The inflammatory responses may be in the form of edema (measured by wet weight); vascular permeability (measured by ^125 I-BSA accumulation); or PMN infiltration (measured by myeloperoxidase activity).
Method: The right ears of mice (5 mice per group) were treated topically with either […] or 1000 μg AA alone or with the test compound in 25 μl of vehicle. The vehicle was water/pyridine/acetone (1:2:97). A control group of mice received the vehicle only. The mice were allowed food and water ad libitum during the treatment period; 2 hours for AA and 4 hours for PMA. The mice were sacrificed by cervical dislocation and a 6 mm diameter disc of tissue punched from both the treated and untreated ears. The tissue biopsies were immediately weighed and the weight increase of the treated ear relative to the weight of the untreated ear determined.
For the determination of vascular permeability, […] ^125 I-bovine serum albumin (^125 I-BSA) was administered in 0.5 ml phosphate buffered saline 15 min prior to the topical application. At the termination of the experiment, the amount of radioactivity in both the treated and untreated ear biopsies was determined and the increased amount of radioactivity in the treated tissue relative to the amount of radioactive in the untreated tissue determined.
As a measure of PMN infiltration, the amount of myeloperoxidase (MPO) activity in the same tissues was determined. The tissue biopsies were homogenized into 1 ml 0.5% hexadecyltrimethylammonium bromide and centrifuged for 45 min. at 1200×g. Aliquots 40 μl, of the supernatant phases were assayed for MPO activity by a colorimetric method devised by H. Dougherty for automated Titertek analysis. The MPO activity is expressed as the OD450 of the treated ear homogenate minus the OD450 of the non-treated ear homogenate.
All of the data are expressed as the mean ±SEM, N=5 mice/group.

[2] = system: inflammatory responses elicited by topically applied phorbol myristate acetate (PMA) or topically applied arachidonic acid (AA); settings: previously established; cited from earlier work

Structure (SMILES) | Edema (% inhibition) ([1]; Dosage 50 μg) [%] | Edema (% inhibition) ([1]; Dosage 100 μg) [%] | Edema (% inhibition) ([1]; Dosage 200 μg) [%] | Edema (% inhibition) ([1]; Dosage 400 μg) [%] | activity in the topical mouse ear assay [2]
CC(=O)c1ccc(NCc2cc3c(cc2O)CCO3)cc1 [A, 5-Hydroxy-6-(4-acetylphenyl)aminomethyl-2,3-dihydrobenzofuran] | 44 | 45 | 60 | 76 | –
COc1ccc2c(c1)c(CC(=O)O)c(C)n2C(=O)c1ccc(Cl)cc1 [Indomethacin, indomethacin] | 24 | 42 | 46 | 85 | active
C[C@@H]1C[C@H]2[C@@H]3CCC4=CC(=O)C=C[C@]4(C)[C@@]3(F)[C@@H](O)C[C@]2(C)[C@@]1(O)C(=O)CO [dexamethasone] | – | – | – | – | active
